Values quoted from earlier work as cited in patent US20260206768A1, “COMBINATION OF VARIOUS NITROGEN FIXING BACTERIA WITH VARIOUS BIOLOGICAL PRODUCTS TO ACHIEVE SYNERGISTIC EFFECTS” (Pivot Bio, Inc., priority 2022, published 2026).
Peptide text beside a SMILES is read from it.

Conditions: for Useful pH range: buffering range

SMILES	pKa at 25° C.	Useful pH range
NC(=O)CNCCS(=O)(=O)O [ACES]	6.78	6.1-7.5
NC(=O)CN(CC(=O)O)CC(=O)O [ADA]	6.59	6.0-7.2
CC(N)(CO)CO [AMPD]	8.8	7.8-9.7
CC(C)(CO)NCC(O)CS(=O)(=O)O (centres unmarked) [AMPSO]	9	8.3-9.7
CC(C)(N)CO [AMP]	9.7	9.0-10.5
CC(=O)O [Acetic acid, Ethanoic acid]		3.8-5.8
O=S(=O)(O)CCN(CCO)CCO [BES]	7.09	6.4-7.8
OCC(CO)(CO)NCCCNC(CO)(CO)CO [Bis-Tris Propane]		6.3-9.5
OB(O)O [Boric acid]		8.25-10.25
O=S(=O)(O)CCCCNC1CCCCC1 [CABS]	10.7	10.0-11.4
O=S(=O)(O)CC(O)CNC1CCCCC1 (centres unmarked) [CAPSO]		8.9-10.3
O=S(=O)(O)CCCNC1CCCCC1 [CAPS]	10.4	9.7-11.1
O=S(=O)(O)CCNC1CCCCC1 [CHES, N-Cyclohexyl-2-aminoethanesulfonic acid]		8.3-10.3
O=C(O)CC(O)(CC(=O)O)C(=O)O [Citric acid, 2-Hydroxypropane-1,2,3-tricarboxylic acid]		2.1-7.4
O=S(=O)(O)CC(O)CN(CCO)CCO (centres unmarked) [DIPSO]	7.6	7.0-8.2
O=S(=O)(O)CCCN1CCN(CCO)CC1 [EPPS]	8	7.3-8.7
NCC(=O)NCC(=O)O [Gly-Gly] (H-Gly-Gly-OH)		7.5-8.9
O=S(=O)(O)CCCCN1CCN(CCO)CC1 [HEPBS]	8.3	7.6-9.0
O=P([O-])([O-])O.[K+].[K+] [K2HPO4, dipotassium phosphate]		8.7-9.4
O=P([O-])([O-])[O-].[K+].[K+].[K+] [K3PO4]		11.5-12.3
O=S(=O)(O)CCCCN1CCOCC1 [MOBS]	7.6	6.9-8.3
O=S(=O)(O)CCN1CCN(CCS(=O)(=O)O)CC1 [PIPES, piperazine-N,N′-bis(2-ethanesulfonic acid)]	6.76	6.1-7.5
O=S(=O)(O)CC(O)CN1CCN(CC(O)CS(=O)(=O)O)CC1 (centres unmarked) [POPSO]	7.8	7.2-8.5
O=S(=O)(O)CCCCNC(CO)(CO)CO [TABS]	8.9	8.2-9.6
O=S(=O)(O)CCCNC(CO)(CO)CO [TAPS, [tris(hydroxymethyl)methylamino]propanesulfonic acid]		7.7-9.1
O=S(=O)(O)CC(O)CNC(CO)(CO)CO (centres unmarked) [TAPSO, 3-[N-tris(hydroxymethyl)methylamino]-2-hydroxypropanesulfonic acid]		7.0-8.2
OCCN(CCO)CCO [TEA]		7.3-8.3
O=S(=O)(O)CCNC(CO)(CO)CO [TES, 2-[[1,3-dihydroxy-2-(hydroxymethyl)propan-2-yl]amino]ethanesulfonic acid]		6.8-8.2
O=C(O)CNC(CO)(CO)CO [Tricine, N-[tris(hydroxymethyl)methyl]glycine]		7.4-8.8
